≈ marks a conversion by molar mass, not a printed value.

The record followed here is US11034650B2, “Compounds useful for treating a Mannheimia haemolytica or Histophilus somni infection” (Intervet Inc., priority 2016, dated 2021).

For the first test, the system named is Mannheimia haemolytica MH 6357 (M7/2, reference strain, cattle infection strain). As to the kind of experiment: MIC, broth-microdilution (CLSI VET01-A4), strain MH 6357. Conditions: Mannheimia haemolytica strain MH 6357, broth-microdilution; unit assumed. It counts as cell-based. An outline of the steps: (§1)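 The compound was titrated in twofold steps in microdilution trays. Absence of turbidity, checked without instruments, marked the MIC at the lowest such concentration.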
(In general: In broth dilution the organism is exposed to a series of concentrations in liquid medium.)
Take `CC(C)([C@H](NC(=O)c1ccc(C#Cc2ccc(CN3CCOCC3)s2)cc1)C(=O)NO)S(C)(=O)=O` [Compound 314]: the MIC MH 6357 amounted to 0.4 µg/mL (≈ 0.77 µM).

Turning to `CC(C)([C@H](NC(=O)c1ccc(C#Cc2ccc(CNCc3ncccn3)s2)cc1)C(=O)NO)S(C)(=O)=O` [Compound 322], the MIC MH 6357 was 0.4 µg/mL (≈ 0.738 µM).

In the case of `CC(=O)C(NC(=O)c1ccc(C#Cc2ccc(CNC3CCCC3)cc2)cc1)C(=O)NO` (stereo not shown) [Compound 405], the MIC MH 6357 was 25 µg/mL (≈ 57.7 µM).

Take `C=CCNCc1ccc(C#Cc2ccc(C(=O)N[C@H](C(=O)NO)C(C)(C)S(C)(=O)=O)cc2)s1` [Compound 312]: the MIC MH 6357 amounted to 0.4 µg/mL (≈ 0.817 µM).

Another test relates to Mannheimia haemolytica MH 6374 (ATCC 33396, reference strain). As to the kind of experiment: MIC, broth-microdilution (CLSI VET01-A4), strain MH 6374. Type of test: cell-based. The settings on record: Mannheimia haemolytica strain MH 6374, broth-microdilution; unit assumed. An outline of the steps:
as §1
`CC(C)([C@H](NC(=O)c1ccc(C#Cc2ccc(CN3CCOCC3)s2)cc1)C(=O)NO)S(C)(=O)=O` [Compound 314] returned an MIC MH 6374 of 1.6 µg/mL (≈ 3.08 µM).

Consider `CC(C)([C@H](NC(=O)c1ccc(C#Cc2ccc(CNCc3ncccn3)s2)cc1)C(=O)NO)S(C)(=O)=O` [Compound 322], for which the MIC MH 6374 amounted to 1.6 µg/mL (≈ 2.95 µM).

`CC(=O)C(NC(=O)c1ccc(C#Cc2ccc(CNC3CCCC3)cc2)cc1)C(=O)NO` (stereo not shown) [Compound 405] displayed an MIC MH 6374 of 50 µg/mL (≈ 115 µM).

`C=CCNCc1ccc(C#Cc2ccc(C(=O)N[C@H](C(=O)NO)C(C)(C)S(C)(=O)=O)cc2)s1` [Compound 312] came in with an MIC MH 6374 of 0.4 µg/mL (≈ 0.817 µM).

The subject of the next test is Mannheimia haemolytica MH 10720 (154, BRD field isolate). Nature of the test: MIC, broth-microdilution (CLSI VET01-A4), strain MH 10720. It counts as cell-based. Conditions: Mannheimia haemolytica strain MH 10720, broth-microdilution; unit assumed. A digest of the protocol: as §1
`CC(C)([C@H](NC(=O)c1ccc(C#Cc2ccc(CN3CCOCC3)s2)cc1)C(=O)NO)S(C)(=O)=O` [Compound 314]: the MIC MH 10720 is no more than 0.1 µg/mL.

For `CC(C)([C@H](NC(=O)c1ccc(C#Cc2ccc(CNCc3ncccn3)s2)cc1)C(=O)NO)S(C)(=O)=O` [Compound 322], the MIC MH 10720 was no more than 0.1 µg/mL.

As to `CC(=O)C(NC(=O)c1ccc(C#Cc2ccc(CNC3CCCC3)cc2)cc1)C(=O)NO` (stereo not shown) [Compound 405], the MIC MH 10720 is 6.3 µg/mL (≈ 14.5 µM).

`C=CCNCc1ccc(C#Cc2ccc(C(=O)N[C@H](C(=O)NO)C(C)(C)S(C)(=O)=O)cc2)s1` [Compound 312] gave an MIC MH 10720 of no more than 0.1 µg/mL.

The test system of another test is Mannheimia haemolytica MH 12587 (1071, BRD field isolate, macrolide-resistance: erm+, E+). Nature of the test: MIC, broth-microdilution (CLSI VET01-A4), strain MH 12587. It counts as cell-based. Conditions: Mannheimia haemolytica strain MH 12587, broth-microdilution; unit assumed. An outline of the steps:
as §1
Turning to `CC(C)([C@H](NC(=O)c1ccc(C#Cc2ccc(CN3CCOCC3)s2)cc1)C(=O)NO)S(C)(=O)=O` [Compound 314], the MIC MH 12587 stood at 0.8 µg/mL (≈ 1.54 µM).

As to `CC(C)([C@H](NC(=O)c1ccc(C#Cc2ccc(CNCc3ncccn3)s2)cc1)C(=O)NO)S(C)(=O)=O` [Compound 322], the MIC MH 12587 came to 1.6 µg/mL (≈ 2.95 µM).

The compound `CC(=O)C(NC(=O)c1ccc(C#Cc2ccc(CNC3CCCC3)cc2)cc1)C(=O)NO` (stereo not shown) [Compound 405] yielded an MIC MH 12587 of 12.5 µg/mL (≈ 28.8 µM).

For `C=CCNCc1ccc(C#Cc2ccc(C(=O)N[C@H](C(=O)NO)C(C)(C)S(C)(=O)=O)cc2)s1` [Compound 312], the MIC MH 12587 came to 0.8 µg/mL (≈ 1.63 µM).

The test system of another test is Mannheimia haemolytica MH 13065 (XB0446-6003.9, BRD field isolate). Nature of the test: MIC, broth-microdilution (CLSI VET01-A4), strain MH 13065. The settings on record: Mannheimia haemolytica strain MH 13065, broth-microdilution; unit assumed. It counts as cell-based. A digest of the protocol:
as §1
In turn, `CC(C)([C@H](NC(=O)c1ccc(C#Cc2ccc(CN3CCOCC3)s2)cc1)C(=O)NO)S(C)(=O)=O` [Compound 314] registered an MIC MH 13065 of 0.4 µg/mL (≈ 0.77 µM).

Compound `CC(C)([C@H](NC(=O)c1ccc(C#Cc2ccc(CNCc3ncccn3)s2)cc1)C(=O)NO)S(C)(=O)=O` [Compound 322] displayed an MIC MH 13065 of 0.8 µg/mL (≈ 1.48 µM).

With `CC(=O)C(NC(=O)c1ccc(C#Cc2ccc(CNC3CCCC3)cc2)cc1)C(=O)NO` (stereo not shown) [Compound 405], the MIC MH 13065 is 0.8 µg/mL (≈ 1.85 µM).

In turn, `C=CCNCc1ccc(C#Cc2ccc(C(=O)N[C@H](C(=O)NO)C(C)(C)S(C)(=O)=O)cc2)s1` [Compound 312] had an MIC MH 13065 of 0.4 µg/mL (≈ 0.817 µM).

In a further test the test system is Mannheimia haemolytica MH 13093 (XB0472-6014.1, BRD field isolate). Nature of the test: MIC, broth-microdilution (CLSI VET01-A4), strain MH 13093. It counts as cell-based. Conditions: Mannheimia haemolytica strain MH 13093, broth-microdilution; unit assumed. An outline of the steps: as §1
As for `CC(C)([C@H](NC(=O)c1ccc(C#Cc2ccc(CN3CCOCC3)s2)cc1)C(=O)NO)S(C)(=O)=O` [Compound 314], the MIC MH 13093 turned out to be 0.8 µg/mL (≈ 1.54 µM).

The compound `CC(C)([C@H](NC(=O)c1ccc(C#Cc2ccc(CNCc3ncccn3)s2)cc1)C(=O)NO)S(C)(=O)=O` [Compound 322] came in with an MIC MH 13093 of 0.8 µg/mL (≈ 1.48 µM).

Take `CC(=O)C(NC(=O)c1ccc(C#Cc2ccc(CNC3CCCC3)cc2)cc1)C(=O)NO` (stereo not shown) [Compound 405]: the MIC MH 13093 came to 25 µg/mL (≈ 57.7 µM).

For `C=CCNCc1ccc(C#Cc2ccc(C(=O)N[C@H](C(=O)NO)C(C)(C)S(C)(=O)=O)cc2)s1` [Compound 312], the MIC MH 13093 stood at 0.8 µg/mL (≈ 1.63 µM).

For the next test, the system named is Pasteurella multocida PM 6267 (P 2225 (L386), reference strain, mouse infection strain). As to the kind of experiment: MIC, broth-microdilution (CLSI VET01-A4), strain PM 6267. It counts as cell-based. Conditions: Pasteurella multocida strain PM 6267, broth-microdilution; unit assumed. An outline of the steps: as §1
With `CC(C)([C@H](NC(=O)c1ccc(C#Cc2ccc(CN3CCOCC3)s2)cc1)C(=O)NO)S(C)(=O)=O` [Compound 314], the MIC PM 6267 came out at 0.4 µg/mL (≈ 0.77 µM).

In the case of `CC(C)([C@H](NC(=O)c1ccc(C#Cc2ccc(CNCc3ncccn3)s2)cc1)C(=O)NO)S(C)(=O)=O` [Compound 322], the MIC PM 6267 came to 0.4 µg/mL (≈ 0.738 µM).

In turn, `CC(=O)C(NC(=O)c1ccc(C#Cc2ccc(CNC3CCCC3)cc2)cc1)C(=O)NO` (stereo not shown) [Compound 405] gave an MIC PM 6267 of 100 µg/mL (≈ 231 µM).

As to `C=CCNCc1ccc(C#Cc2ccc(C(=O)N[C@H](C(=O)NO)C(C)(C)S(C)(=O)=O)cc2)s1` [Compound 312], the MIC PM 6267 came to 0.4 µg/mL (≈ 0.817 µM).

Another test deals with Pasteurella multocida PM 6391 (ATCC 43137, reference strain). As to the kind of experiment: MIC, broth-microdilution (CLSI VET01-A4), strain PM 6391. It counts as cell-based. Conditions: Pasteurella multocida strain PM 6391, broth-microdilution; unit assumed. A digest of the protocol: as §1
`CC(C)([C@H](NC(=O)c1ccc(C#Cc2ccc(CN3CCOCC3)s2)cc1)C(=O)NO)S(C)(=O)=O` [Compound 314]: the MIC PM 6391 was no more than 0.1 µg/mL.

As for `CC(C)([C@H](NC(=O)c1ccc(C#Cc2ccc(CNCc3ncccn3)s2)cc1)C(=O)NO)S(C)(=O)=O` [Compound 322], the MIC PM 6391 stood at 0.2 µg/mL (≈ 0.369 µM).

As for `CC(=O)C(NC(=O)c1ccc(C#Cc2ccc(CNC3CCCC3)cc2)cc1)C(=O)NO` (stereo not shown) [Compound 405], the MIC PM 6391 is 0.8 µg/mL (≈ 1.85 µM).

In the case of `C=CCNCc1ccc(C#Cc2ccc(C(=O)N[C@H](C(=O)NO)C(C)(C)S(C)(=O)=O)cc2)s1` [Compound 312], the MIC PM 6391 was no more than 0.1 µg/mL.

Another test has as its system Pasteurella multocida PM 10775 (080130003051, BRD field isolate). Nature of the test: MIC, broth-microdilution (CLSI VET01-A4), strain PM 10775. It counts as cell-based. Conditions: Pasteurella multocida strain PM 10775, broth-microdilution; unit assumed. A digest of the protocol:
as §1
In turn, `CC(C)([C@H](NC(=O)c1ccc(C#Cc2ccc(CN3CCOCC3)s2)cc1)C(=O)NO)S(C)(=O)=O` [Compound 314] returned an MIC PM 10775 of no more than 0.1 µg/mL.

Regarding `CC(C)([C@H](NC(=O)c1ccc(C#Cc2ccc(CNCc3ncccn3)s2)cc1)C(=O)NO)S(C)(=O)=O` [Compound 322], the MIC PM 10775 was no more than 0.1 µg/mL.

On to `CC(=O)C(NC(=O)c1ccc(C#Cc2ccc(CNC3CCCC3)cc2)cc1)C(=O)NO` (stereo not shown) [Compound 405], for which the MIC PM 10775 amounted to 3.1 µg/mL (≈ 7.15 µM).

Turning to `C=CCNCc1ccc(C#Cc2ccc(C(=O)N[C@H](C(=O)NO)C(C)(C)S(C)(=O)=O)cc2)s1` [Compound 312], the MIC PM 10775 was no more than 0.1 µg/mL.

Another test has as its system Pasteurella multocida PM 12080 (IV102277-0093, BRD field isolate). As to the kind of experiment: MIC, broth-microdilution (CLSI VET01-A4), strain PM 12080. Type of test: cell-based. Conditions: Pasteurella multocida strain PM 12080, broth-microdilution; unit assumed. An outline of the steps:
as §1
For the compound `CC(C)([C@H](NC(=O)c1ccc(C#Cc2ccc(CN3CCOCC3)s2)cc1)C(=O)NO)S(C)(=O)=O` [Compound 314], the MIC PM 12080 was no more than 0.1 µg/mL.

Consider `CC(C)([C@H](NC(=O)c1ccc(C#Cc2ccc(CNCc3ncccn3)s2)cc1)C(=O)NO)S(C)(=O)=O` [Compound 322], for which the MIC PM 12080 is no more than 0.1 µg/mL.

As for `CC(=O)C(NC(=O)c1ccc(C#Cc2ccc(CNC3CCCC3)cc2)cc1)C(=O)NO` (stereo not shown) [Compound 405], the MIC PM 12080 was 0.8 µg/mL (≈ 1.85 µM).

As for `C=CCNCc1ccc(C#Cc2ccc(C(=O)N[C@H](C(=O)NO)C(C)(C)S(C)(=O)=O)cc2)s1` [Compound 312], the MIC PM 12080 was no more than 0.1 µg/mL.
